Reference: patent US20240116985A1, “STAPLED PEPTIDES AND METHODS THEREOF” (priority 2020, published 2024)

Molecular target: T1, full-length beta-Catenin (Uniprot ID P35222) (Homo sapiens, UniProt P35222)
T1 construct: 10 nM full-length beta-Catenin (Uniprot ID P35222)
T1 sequence (P35222 1-781): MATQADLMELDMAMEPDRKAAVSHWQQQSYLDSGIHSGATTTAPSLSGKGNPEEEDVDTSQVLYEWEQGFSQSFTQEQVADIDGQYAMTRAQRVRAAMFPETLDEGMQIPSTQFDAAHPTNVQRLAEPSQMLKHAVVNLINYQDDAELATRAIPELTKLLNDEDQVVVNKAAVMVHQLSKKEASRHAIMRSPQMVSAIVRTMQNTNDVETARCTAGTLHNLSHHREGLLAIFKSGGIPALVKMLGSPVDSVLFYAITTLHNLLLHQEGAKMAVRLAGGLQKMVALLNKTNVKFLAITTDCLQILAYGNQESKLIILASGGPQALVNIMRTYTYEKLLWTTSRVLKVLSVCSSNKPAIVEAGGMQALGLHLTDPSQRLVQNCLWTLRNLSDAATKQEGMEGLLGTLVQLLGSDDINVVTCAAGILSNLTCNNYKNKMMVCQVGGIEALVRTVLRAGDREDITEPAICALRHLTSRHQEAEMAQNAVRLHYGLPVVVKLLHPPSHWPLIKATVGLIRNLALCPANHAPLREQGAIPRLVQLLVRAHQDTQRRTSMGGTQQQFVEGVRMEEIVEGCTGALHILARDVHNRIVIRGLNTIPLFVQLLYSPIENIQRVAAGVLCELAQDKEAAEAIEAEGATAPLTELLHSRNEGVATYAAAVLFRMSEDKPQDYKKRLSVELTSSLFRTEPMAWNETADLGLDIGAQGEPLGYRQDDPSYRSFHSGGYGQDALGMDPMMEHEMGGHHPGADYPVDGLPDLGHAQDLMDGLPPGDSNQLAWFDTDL
Assay: Fluorescence polarization IC50 (beta-catenin / 5FAM-TCF4 10-53 competition)
Format: binding
Conditions: fluorescence polarization; read-out: beta-Catenin FP IC50

| SMILES | IC50 |
| --- | --- |
| CC(=O)N1CCC[C@]12CC=CCCCC1(CCCC=CCCCOC(=O)N3CC[C@@](C(=O)N[C@@H](Cc4ccccc4)C(=O)N[C@@H](Cc4csc5ccccc45)C(=O)N[C@@H](CCO)C(N)=O)(C3)NC(=O)[C@H](CCO)NC(=O)[C@H](Cc3ccccc3)NC(=O)[C@H](C)NC(=O)[C@H](CCCCNC(C)C)NC(=O)[C@H](CCC(N)=O)NC(=O)[C@H](CC(=O)O)NC1=O)NC(=O)[C@H](CC1CCCCC1)NC(=O)[C@H](CC(N)=O)NC2=O (stereo partly drawn) [I-1922, Ac-PL3-Asn-Cha-B5-Asp-Gln-iPrLys-Ala-Phe-Hse-PyrS2-Phe-BztA-Hse-NH2] | 457 nM |
| CC(=O)N1CCC[C@]12CC=CCCCC1(CCCC=CCCCOC(=O)N3CC[C@@](C(=O)N[C@@H](Cc4ccccc4)C(=O)N[C@@H](Cc4csc5ccccc45)C(=O)N[C@@H](CCO)C(N)=O)(C3)NC(=O)[C@H](CC(N)=O)NC(=O)[C@H](Cc3cccc(Cl)c3)NC(=O)[C@H](C)NC(=O)[C@H](CCCCNC(C)C)NC(=O)[C@H](CCC(N)=O)NC(=O)[C@H](CC(=O)O)NC1=O)NC(=O)[C@H](CC1CCCCC1)NC(=O)[C@H](CC(N)=O)NC2=O (stereo partly drawn) [I-1924, Ac-PL3-Asn-Cha-B5-Asp-Gln-iPrLys-Ala-3C1F-Asn-PyrS2-Phe-BztA-Hse-NH2] | 1610 nM |
| COc1cccc(C[C@@H]2NC(=O)[C@H](C)NC(=O)[C@H](CCCCNC(C)C)NC(=O)[C@H](CCC(N)=O)NC(=O)[C@H](CC(=O)O)NC(=O)C3(CCCC=CCCCOC(=O)N4CC[C@@](C(=O)N[C@@H](Cc5ccccc5)C(=O)N[C@@H](Cc5csc6ccccc56)C(=O)N[C@@H](CCO)C(N)=O)(C4)NC(=O)[C@H](CC(N)=O)NC2=O)CCCC=CC[C@]2(CCCN2C(C)=O)C(=O)N[C@@H](CC(N)=O)C(=O)N[C@@H](CC2CCCCC2)C(=O)N3)c1 (stereo partly drawn) [I-1926, Ac-PL3-Asn-Cha-B5-Asp-Gln-iPrLys-Ala-3OMeF-Asn-PyrS2-Phe-BztA-Hse-NH2] | 417 nM |
| CC(=O)N1CCC[C@]12CC=CCCCC1(CCCC=CCCCOC(=O)N3CC[C@@](C(=O)N[C@@H](Cc4cccnc4)C(=O)N[C@@H](Cc4csc5ccccc45)C(=O)N[C@@H](CCO)C(N)=O)(C3)NC(=O)[C@H](CC(N)=O)NC(=O)[C@H](Cc3ccccc3)NC(=O)[C@H](C)NC(=O)[C@H](CCCCNC(C)C)NC(=O)[C@H](CCC(N)=O)NC(=O)[C@H](CC(=O)O)NC1=O)NC(=O)[C@H](CC1CCCCC1)NC(=O)[C@H](CC(N)=O)NC2=O (stereo partly drawn) [I-1927, Ac-PL3-Asn-Cha-B5-Asp-Gln-iPrLys-Ala-Phe-Asn-PyrS2-3PyrA-BztA-Hse-NH2] | 5140 nM |
| COc1cccc(C[C@H](NC(=O)[C@]23CCN(C2)C(=O)OCCCC=CCCCC2(CCCC=CC[C@]4(CCCN4C(C)=O)C(=O)N[C@@H](CC(N)=O)C(=O)N[C@@H](CC4CCCCC4)C(=O)N2)C(=O)N[C@@H](CC(=O)O)C(=O)N[C@@H](CCC(N)=O)C(=O)N[C@@H](CCCCNC(C)C)C(=O)N[C@@H](C)C(=O)N[C@@H](Cc2ccccc2)C(=O)N[C@@H](CC(N)=O)C(=O)N3)C(=O)N[C@@H](Cc2csc3ccccc23)C(=O)N[C@@H](CCO)C(N)=O)c1 (stereo partly drawn) [I-1930, Ac-PL3-Asn-Cha-B5-Asp-Gln-iPrLys-Ala-Phe-Asn-PyrS2-3OMeF-BztA-Hse-NH2] | 1560 nM |
| CC(=O)N1CCC[C@]12CC=CCCCC1(CCCC=CCCCOC(=O)N3CC[C@@](C(=O)N[C@@H](Cc4ccccc4)C(=O)N[C@@H](Cc4csc5ccccc45)C(=O)N[C@@H](CCO)C(N)=O)(C3)NC(=O)[C@H](CC(N)=O)NC(=O)[C@H](Cc3ccccc3)NC(=O)[C@H](CO)NC(=O)[C@H](CCCCNC(C)C)NC(=O)[C@H](CCC(N)=O)NC(=O)[C@H](CC(=O)O)NC1=O)NC(=O)[C@H](CC1CCCCC1)NC(=O)[C@H](CC(N)=O)NC2=O (stereo partly drawn) [I-1931, Ac-PL3-Asn-Cha-B5-Asp-Gln-iPrLys-Ser-Phe-Asn-PyrS2-Phe-BztA-Hse-NH2] | 1560 nM |
| CC(=O)N1CCC[C@]12CC=CCCCC1(CCCC=CCCCOC(=O)N3CC[C@@](C(=O)N[C@@H](Cc4ccccc4)C(=O)N[C@@H](Cc4csc5ccccc45)C(=O)N[C@@H](CCO)C(N)=O)(C3)NC(=O)[C@H](CC(N)=O)NC(=O)[C@H](Cc3ccccc3)NC(=O)[C@H](C)NC(=O)[C@H](CCCCNC(C)C)NC(=O)[C@H](CCC(N)=O)NC(=O)[C@H](CC(=O)O)NC1=O)NC(=O)[C@H](CC1CCCCC1)NC(=O)[C@H](CCO)NC2=O (stereo partly drawn) [I-1932, Ac-PL3-Hse-Cha-B5-Asp-Gln-iPrLys-Ala-Phe-Asn-PyrS2-Phe-BztA-Hse-NH2] | 285 nM |
| CC(=O)N1CCC[C@]12CC=CCCCC1(CCCC=CCCCOC(=O)N3CC[C@@](C(=O)N[C@@H](Cc4ccsc4)C(=O)N[C@@H](Cc4csc5ccccc45)C(=O)N[C@@H](CCC(N)=O)C(N)=O)(C3)NC(=O)[C@H](CCC(=O)N3CCn4cncc4C3)NC(=O)[C@H](Cc3ccccc3)NC(=O)[C@H](C)NC(=O)[C@H](C)NC(=O)[C@H](CN(CC(=O)O)CC(F)(F)F)NC(=O)[C@H](CC(=O)O)NC1=O)NC(=O)[C@H](CC(C)(C)C)NC(=O)[C@H](CC(=O)O)NC2=O (stereo partly drawn) [I-1934, Ac-PL3-Asp-Npg-B5-Asp-TfeGA-Ala-Ala-Phe-[H4IAP]GlnR-PyrS2-3Thi-BztA-Gln-NH2] | 5 nM |

Further compounds by falling IC50, results first:

| IC50 | SMILES |
| --- | --- |
| 887 nM | CC(=O)N1CCC[C@]12CC=CCCCC1(CCCC=CCCCOC(=O)N3CC[C@@](C(=O)N[C@@H](Cc4cccc(Cl)c4)C(=O)N[C@@H](Cc4csc5ccccc45)C(=O)N[C@@H](CCO)C(N)=O)(C3)NC(=O)[C@H](CC(N)=O)NC(=O)[C@H](Cc3ccccc3)NC(=O)[C@H](C)NC(=O)[C@H](CCCCNC(C)C)NC(=O)[C@H](CCC(N)=O)NC(=O)[C@H](CC(=O)O)NC1=O)NC(=O)[C@H](CC1CCCCC1)NC(=O)[C@H](CC(N)=O)NC2=O (stereo partly drawn) [I-1928, Ac-PL3-Asn-Cha-B5-Asp-Gln-iPrLys-Ala-Phe-Asn-PyrS2-3C1F-BztA-Hse-NH2] |
| 475 nM | CC(=O)N1CCC[C@]12CC=CCCCC1(CCCC=CCCCOC(=O)N3CC[C@@](C(=O)N[C@@H](Cc4ccccc4)C(=O)N[C@@H](Cc4csc5ccccc45)C(=O)N[C@@H](CCO)C(N)=O)(C3)NC(=O)[C@H](CC(N)=O)NC(=O)[C@H](Cc3cccc(C(N)=O)c3)NC(=O)[C@H](C)NC(=O)[C@H](CCCCNC(C)C)NC(=O)[C@H](CCC(N)=O)NC(=O)[C@H](CC(=O)O)NC1=O)NC(=O)[C@H](CC1CCCCC1)NC(=O)[C@H](CC(N)=O)NC2=O (stereo partly drawn) [I-1925, Ac-PL3-Asn-Cha-B5-Asp-Gln-iPrLys-Ala-3cbmf-Asn-PyrS2-Phe-BztA-Hse-NH2] |
| 154 nM | CC(=O)N1CCC[C@]12CC=CCCCC1(CCCC=CCCCOC(=O)N3CC[C@@](C(=O)N[C@@H](Cc4ccccc4)C(=O)N[C@@H](Cc4csc5ccccc45)C(=O)N[C@@H](CCO)C(N)=O)(C3)NC(=O)[C@H](CC(N)=O)NC(=O)[C@H](Cc3ccccc3)NC(=O)[C@H](C)NC(=O)[C@H](CCCCNC(C)C)NC(=O)[C@H](CCO)NC(=O)[C@H](CC(=O)O)NC1=O)NC(=O)[C@H](CC1CCCCC1)NC(=O)[C@H](CC(N)=O)NC2=O (stereo partly drawn) [I-1933, Ac-PL3-Asn-Cha-B5-Asp-Hse-iPrLys-Ala-Phe-Asn-PyrS2-Phe-BztA-Hse-NH2] |
| 9 nM | CC(=O)N1CCC[C@]12CC=CCCCC1(CCCC=CCCCOC(=O)N3CC[C@@](C(=O)N[C@@H](Cc4ccsc4)C(=O)N[C@@H](Cc4csc5ccccc45)C(=O)N[C@@H](CCC(N)=O)C(N)=O)(C3)NC(=O)[C@H](CCC(=O)N3CCC(N4CCN(C)CC4)CC3)NC(=O)[C@H](Cc3ccccc3)NC(=O)[C@H](C)NC(=O)[C@H](C)NC(=O)[C@H](CN(CC(=O)O)CC(F)(F)F)NC(=O)[C@H](CC(=O)O)NC1=O)NC(=O)[C@H](CC(C)(C)C)NC(=O)[C@H](CC(=O)O)NC2=O (stereo partly drawn) [I-1937, Ac-PL3-Asp-Npg-B5-Asp-TfeGA-Ala-Ala-Phe-[4MePpzPip]GlnR-PyrS2-3Thi-BztA-Gln-NH2] |
